Assay results as given in ChEMBL document CHEMBL3091360, “Homosecoiridoid alkaloids with amino acid units from the flower buds of Lonicera japonica” (J Nat Prod, 2013).
The source made the active and inactive calls. The calls are words filed in the database; no cut-off is given here.

What was measured:
[1] = test system: Human immunodeficiency virus 1; assay: Antiviral activity against HIV1 infected in human 293T cells expressing VSV-G assessed as inhibition of viral p24 production at 10 uM after 48 hrs by ELISA; assay type: functional, organism-based
[2] = test system: HCT-8; assay: Cytotoxicity against human HCT8 cells at 10 uM after 96 hrs by MTT assay; assay type: functional, cell-based
[3] = test system: KETR3; assay: Cytotoxicity against human Ketr3 cells at 10 uM after 96 hrs by MTT assay; assay type: functional, cell-based
[4] = test system: Bel-7402; assay: Cytotoxicity against human Bel7402 cells at 10 uM after 96 hrs by MTT assay; assay type: functional, cell-based
[5] = test system: MCF7; assay: Cytotoxicity against human MCF7 cells at 10 uM after 96 hrs by MTT assay; assay type: functional, cell-based
[6] = test system: BGC-823; assay: Cytotoxicity against human BGC823 cells at 10 uM after 96 hrs by MTT assay; assay type: functional, cell-based
[7] = test system: A549; assay: Cytotoxicity against human A549 cells at 10 uM after 96 hrs by MTT assay; assay type: functional, cell-based
[8] = Antiinflammatory activity in rat polymorphonuclear leukocytes assessed as inhibition of PAF-induced release of glucuronidase at 10 uM; assay type: functional
[9] = test system: Influenza A virus H3N2; assay: microbe, parasite or virus in culture; details: Hanfang/359/95
[10] = test system: Coxsackievirus B3; assay: Antiviral activity against Coxsackie virus B3 assessed as inhibition of viral replication; assay type: functional, organism-based; details: Enterovirus B

Structure (SMILES)	inhibition [1]	Activity [2]	Activity [3]	Activity [4]	Activity [5]	Activity [6]	Activity [7]	inhibition at 10 µM [8] [%]	IC50 [9] [µM]	IC50 [10] [µM]
COC[C@H]1O[C@@H](n2cnc3c(N)ncnc32)[C@H](O)[C@@H]1O	inactive	inactive	inactive	inactive	inactive	inactive	inactive	< 30	3.4	–
C=C[C@H]1[C@H](O[C@@H]2O[C@H](CO)[C@@H](O)[C@H](O)[C@H]2O)OC=C(C(=O)O)[C@H]1/C=C/c1ccc[n+]([C@H](Cc2ccccc2)C(=O)[O-])c1	inactive	inactive	inactive	inactive	inactive	inactive	inactive	53.8	6.8	12.3
Cc1cc(CCCOc2c(C)cc(-c3noc(C(F)(F)F)n3)cc2C)on1 [PLECONARIL]	–	–	–	–	–	–	–	–	–	0.3
C=C[C@H]1[C@H](O[C@@H]2O[C@H](CO)[C@@H](O)[C@H](O)[C@H]2O)OC=C(C(=O)O)[C@H]1/C=C/c1cc(C(=O)O)c[n+]([C@H](Cc2ccccc2)C(=O)[O-])c1	inactive	inactive	inactive	inactive	inactive	inactive	inactive	< 30	8.2	–
C=C[C@H]1[C@H](O[C@@H]2O[C@H](CO)[C@@H](O)[C@H](O)[C@H]2O)OC=C(C(=O)[O-])[C@H]1/C=C/c1cc(C(=O)O)c[n+]([C@@H](CC(C)C)C(=O)O)c1	inactive	inactive	inactive	inactive	inactive	inactive	inactive	< 30	10.3	–
C=C[C@H]1[C@H](O[C@@H]2O[C@H](CO)[C@@H](O)[C@H](O)[C@H]2O)OC=C(C(=O)O)[C@H]1/C=C/c1ccc[n+]([C@@H](C)C(=O)[O-])c1	inactive	inactive	inactive	inactive	inactive	inactive	inactive	63.2	11.6	–
